The values below come from patent publication US8388982B2, “Photo-induced damage mitigating agents and preparation and methods of use thereof” (priority 2008, dated 2013).

Series [1] is described as follows: Fluorescence correlation spectroscopy (FCS) triplet-state quenching. The conditions noted are these: Alexa568 in low oxygen. The protocol:
Fluorescence correlation spectroscopy (FCS) is a commonly used technique for experimentally characterizing the dynamics of fluorescent species that was initially introduced in the early 1970's (Magde, D., et al, (1972) Phys. Rev. Lett. 29: 705-708). In FCS, light is focused on a sample in a very small detection volume, and the measured fluorescence intensity fluctuations (due to diffusion, physical or chemical reactions, aggregation, etc.) are analyzed using the temporal autocorrelation. Further details are provided, e.g., in Ehrenberg, M. et al. (1974) Chem Phys 4: 390-401; Elson, E. L., et al. (1974) Biopolymers 13: 1-27; Magde, D., et al. (1974) Biopolymers 13: 29-61; Thompson, N. L. (1991) Topics in Fluorescence Spectroscopy Techniques, Vol. 1, ed. J. R. Lakowicz (New York: Plenum) pp. 337-378; Hess, et al. (2002) Biochemistry 41: 697; and Krichevsky, O., et al. (2002) Rep. Prog. Phys. 65: 251-297.
FCS experiments using the fluorophore Alexa568 in low oxygen were used to monitor the amount of the dye triplet state upon excitation over time as a measure of triplet-state quenching by 6-hydroxy-2,5,7,8-tetramethylchroman-2-carboxylic acid and derivatives thereof. Briefly, these experiments were performed on a confocal microscope setup (Olympus IX71 with water-immersion objective UPlanSApo, 60×) using a single line laser excitation (532 nm) at 0.4-mW intensity and two single photon avalanche detectors (SPAD detectors; Perkin Elmer, Waltham, Mass.). The FCS measurements were done in a reaction buffer containing 50 mM ACES, pH 7.1; 75 mM potassium acetate; and 5 mM DTT. A protocatechuic acid/protocatechuate-3,4-dioxygenase (PCA/PCD) oxygen scavenging system (see, e.g., Aitken, et al. (2007) “An Oxygen Scavenging System for Improvement of Dye Stability in Single-Molecule Fluorescence Experiments,” Biophys J. 94:1826-1835) was included, as well. Correlation curves were generated and recorded by a FLEX digital photon correlator (Correlator.com; Bridgewater, N.J.), and analyzed using Origin8.0 (OriginLabs; Northampton, Mass.).
In these experiments, the photo-induced damage mitigating ability of the preparation of photomodified 6-hydroxy-2,5,7,8-tetramethylchroman-2-carboxylic acid (described above), an aged 6-hydroxy-2,5,7,8-tetramethylchroman-2-carboxylic acid solution (stored at −20° C. for ˜1 year), a freshly prepared 6-hydroxy-2,5,7,8-tetramethylchroman-2-carboxylic acid solution (prepared according to manufacturer's instructions), and fresh preparations treated with various UV exposure regimes were compared. The results are plotted as autocorrelation curves in FIG. 9, and the amplitude of the “hump” at around one microsecond (0.001 millisecond (ms)) to a few microseconds indicates the triplet fraction of the dye, so the smaller the amplitude, the better the triplet quencher. […] The aged solution was the second best performer with an autocorrelation amplitude of ˜0.07 at a lag time of 0.001 ms.
The effectiveness of the photomodified solutions and the purified Fraction A and Fraction B as triplet-state quenchers/radical scavengers was tested by fluorescence correlation spectroscopy (FCS) using Alexa568 in low oxygen, as described above in Example 1. Two different intensity of excitation settings, 0.2 mW and 0.4 mW, were used for power dependence.

For series [2], the system named is polymerase. The experiment in a line: Sequencing-by-incorporation readlength. Type of series: biochemical. The note with it: for readlengths compared with 6-hydroxy-2,5,7,8-tetramethylchroman-2-carboxylic acid / no PIDMA: single-molecule, real-time sequencing reactions, FIG. 17; for sequencing readlength: purified fractions, Example 7. The text has this:
In yet another aspect, the present invention is directed to illuminated reactions for single molecule analysis, including sequencing of nucleic acids by observing incorporation of nucleotides into a nascent nucleic acid sequence during template-directed polymerase-based synthesis. Such methods, generally referred to as “sequencing-by-incorporation,” involve the observation of the addition of nucleotides or nucleotide analogs in a template-dependent fashion in order to determine the sequence of the template strand. See, e.g., U.S. Pat. Nos. 6,780,591, 7,037,687, 7,344,865, 7,302,146, and Eid, et al. (2009) Science 323:133-138, all of which are incorporated herein by reference in their entireties for all purposes. Processes for performing this detection include the use of fluorescently labeled nucleotide analogs within a confined observation region, e.g., within a nanoscale well and/or tethered, either directly or indirectly to a surface, By using excitation illumination (i.e., illumination of an appropriate wavelength to excite the fluorescent label and induce a detectable signal), the fluorescently labeled bases can be detected as they are incorporated into the nascent strand, thus identifying the nature of the incorporated base, and as a result, the complementary base in the template strand.
One particularly preferred aspect of the invention is in conjunction with the sequencing by incorporation of nucleic acids within an optical confinement, such as a zero mode waveguide, Such reactions involve observation of an extremely small reaction volume in which one or only a few polymerase enzymes and their fluorescent substrates may be present. Zero mode waveguides, and their use in sequencing applications are generally described in U.S. Pat. Nos. 6,917,726 and 7,033,764, and preferred methods of sequencing by incorporation are generally described in Published U.S. Patent Application No. 2003-0044781, the full disclosures of which are incorporated herein by reference in their entireties for all purposes, and in particular for their teachings regarding such sequencing applications and methods. Briefly, arrays of zero mode waveguides (“ZMWs”), configured in accordance with the present invention may be employed as optical confinements for single molecule analytical reactions, e.g., for nucleic acid (e.g., DNA, RNA) sequence determination. In particular, as noted above, these ZMWs provide extremely small observation volumes at or near the transparent substrate surface, also termed the “base” of the ZMW. A nucleic acid synthesis complex, e.g., template sequence, polymerase, and primer, which is immobilized at the base of the ZMW, may then be specifically observed during synthesis to monitor incorporation of nucleotides in a template dependent fashion, and thus provide the identity and sequences of nucleotides in the template strand. This identification is typically accomplished by providing detectable label groups, such as fluorescent labeling molecules, on the nucleotides. In some instances, the labeled nucleotides terminate primer extension, allowing a “one base at a time” interrogation of the complex. If, upon exposure to a given labeled base, a base is incorporated, its representative fluorescent signal may be detected at the base of the ZMW. If no signal is detected, then the base was not incorporated and the complex is interrogated with each of the other bases, in turn. Once a base is incorporated, the labeling group is removed, e.g., through the use of a photocleavable linking group, and where the label was not the terminating group, a terminator, upon the 3′ end of the incorporated nucleotide, may be removed prior to subsequent interrogation.
Experiments were performed to test the performance of pure 6-hydroxy-2,5,7,8-tetramethylchroman-2-carboxylic acid against various mixtures of 6-hydroxy-2,5,7,8-tetramethylchroman-2-carboxylic acid and derivatives thereof. […]

The nature of series [3]: Saturation point of solutions for photomodification. In kind it is physicochemical. The conditions noted are these: solutions subjected to photomodification. The procedure:
Of course, the amount of time for UV irradiation and room light exposure can be adjusted, as can the concentration of the 6-hydroxy-2,5,7,8-tetramethylchroman-2-carboxylic acid solution to be treated. For example, one to twenty-four hours of UV irradiation have been employed, as have 18 to 36 hours room light exposure. In general, and as shown in FIG. 9 described above, increasing UV exposures increase the ability of the mixture to effectively mitigate photo-induced damage, although there was no significant difference between the three, six, and 24 hour exposures (FIG. 9). Further, the solutions of 6-hydroxy-2,5,7,8-tetramethylchroman-2-carboxylic acid subjected to photomodification were typically of a concentration of 95-100 mM, which is near the saturation point for the compound. However, treatment of more or less concentrated solutions in contemplated and known chemical methods may be employed to increase the solubility of the compound prior to treatment.

The nature of series [4]: Photolysis of Fraction A to Fraction B under UV, followed by reverse phase HPLC. In kind it is physicochemical. The procedure: Fraction A was further converted to Fraction B by photolysis in a separate experiment. Specifically, purified Fraction A (reverse phase HPLC peak migration time of 9.791 minutes; FIG. 12A) was subjected to UV irradiation in water for one hour to produce Fraction B (reverse phase HPLC peak migration time of 14.891 minutes; FIG. 12B).

A short description of series [5]: Brightness of Alexa A-647 dye. The conditions noted are these: purified fractions.
The mark [6] stands for this setting: Example 3, FIG. 11A, 0.2 mW intensity of excitation.
[7] abbreviates: Example 3, FIG. 11B, 0.4 mW intensity of excitation.

For the compound `Cc1c(C)c2c(c(C)c1O)CCC(C)(C(=O)O)O2` (single isomer, unassigned) [6-hydroxy-2,5,7,8-tetramethylchroman-2-carboxylic acid, reference compound], the “autocorrelation amplitude at a lag time of 0.001 ms” value (shortened to “autocorrelation amplitude”) in series [1] (Example 1, FIG. 9, 532 nm, 0.4 mW, smaller amplitude = better triplet quencher) was around 0.2. Also, in series [2] (0.5 mM, FIG. 13), the “proportion of sequencing reactions that attained a readlength of at least one-fifth the maximum” value was “about 10%”, the “proportion of sequencing reactions that attained a readlength of at least one-tenth of the maximum readlength” value is recorded as 60% and the “sequencing reactions that attained a readlength of at least 30% of the maximum” value is “very few”. Further, the “readlengths compared with 6-hydroxy-2,5,7,8-tetramethylchroman-2-carboxylic acid / no PIDMA” value in series [2] was “surprisingly similar to having no PIDMA present at all”. In series [3], the “concentration near the saturation point” value is 95000 to 100000 µM.

In the case of `CC1=C(C)C(=O)C(CCC(C)(O)C(=O)O)=C(C)C1=O` (single isomer, unassigned) [Fraction A, 2-hydroxy-2-methyl-4-(2,4,5-trimethyl-3,6-dioxocyclohexa-1,4-dienyl)butanoic acid], the “autocorrelation amplitude” value in series [1] (setting [6]) is reported as around 0.065; in series [1] (setting [7]), around 0.043. Besides, the “readlength compared with fresh 6-hydroxy-2,5,7,8-tetramethylchroman-2-carboxylic acid” value in series [2] (0.05 mM purified Fraction A with 0.5 mM 6-hydroxy-2,5,7,8-tetramethylchroman-2-carboxylic acid, FIG. 13) was “much longer readlengths”; in series [2] (0.10 mM purified Fraction A with 0.5 mM 6-hydroxy-2,5,7,8-tetramethylchroman-2-carboxylic acid, FIG. 13) it was “much longer readlengths”; in series [2] (0.25 mM purified Fraction A with 0.5 mM 6-hydroxy-2,5,7,8-tetramethylchroman-2-carboxylic acid, FIG. 13) it was “much longer readlengths”. Further, in series [2], the “readlengths compared with 6-hydroxy-2,5,7,8-tetramethylchroman-2-carboxylic acid / no PIDMA” value was “to a lesser extent”. Further, the “conversion from Fraction A to Fraction B” value in series [4] (UV irradiation in water for one hour) stood at 80%. Moreover, in series [4] (under a portable UV lamp), the “time until conversion is essentially complete” value is listed as “about four”. The half-life in series [4] (water under UV irradiation, UV irradiation in water, read-out: half-life of conversion to Fraction B) came to 26 min.

Consider `CC(=O)CCC1=C(C)C(=O)C(C)=C(C)C1=O` (single isomer, unassigned) [Fraction B, 2,3,5-trimethyl-6-(3-oxobutyl)-1,4-benzoquinone], for which the “autocorrelation amplitude” value in series [1] (setting [6]) was around 0.06; in series [1] (setting [7]), around 0.04.

`CC1=C(C)C(=O)C2(CCC(C)(C(=O)O)O2)C(C)(O)C1=O` (single isomer, unassigned) [fraction 5, 10-hydroxy-2,7,8,10-tetramethyl-6,9-dioxo-1-oxaspiro[4.5]dec-7-ene-2-carboxylic acid]: in series [2], the sequencing readlength result was “significantly increase sequencing readlength” and the “readlengths compared with 6-hydroxy-2,5,7,8-tetramethylchroman-2-carboxylic acid / no PIDMA” value was “longer readlengths”. Further, the “brightness of Alexa A-647 dye” value in series [5] is “increase the brightness”.

Turning to `CC1=C(C)C(=O)C2(CCC(C)(C(=O)O)O2)C(C)(O)C1=O` (single isomer, unassigned) [fraction 7, 10-hydroxy-2,7,8,10-tetramethyl-6,9-dioxo-1-oxaspiro[4.5]dec-7-ene-2-carboxylic acid], in series [2], the sequencing readlength result was “significantly increase sequencing readlength” and the “readlengths compared with 6-hydroxy-2,5,7,8-tetramethylchroman-2-carboxylic acid / no PIDMA” value is on record as “longer readlengths”. For the same compound, in series [5], the “brightness of Alexa A-647 dye” value was “increase the brightness”.

Broadly, the half-life is the time in which the quantity being followed falls by half.
